In PubChem BioAssay (NCI) one finds TGI data, which are given here for twelve compounds.

Among the test systems are CCRF-CEM leukemia; HS 578T breast; UACC-257 melanoma; MOLT-4 leukemia; UO-31 renal; PC-3 prostate; MDA-N; HCT-15 colon; KM12 colon; OVCAR-4 ovarian; UACC-62 melanoma; SR leukemia; NCI/ADR-RES ovarian; SK-MEL-28 melanoma; SW-620 colon; HL-60(TB) leukemia; K-562 leukemia; MDA-MB-231 breast; OVCAR-5 ovarian; OVCAR-3 ovarian.
Experiment in all cases: NCI tumour cell line growth inhibition, 48 h

Structures are written as SMILES.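 These data come from cells grown in 96-well plates and exposed to compound for 48 hours at five concentrations. Definition used: TGI = concentration required for complete inhibition of growth.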

As for `Clc1ccccc1-c1nc2ccc(C34CC5CC(CC(C5)C3)C4)cc2[nH]1`, the TGI in the assay with CCRF-CEM leukemia was > 100 µM; with HS 578T breast, 89.9 µM; in the assay with UACC-257 melanoma, > 100 µM; in the assay with MOLT-4 leukemia, > 100 µM; in the assay on UO-31 renal, 28.1 µM; in the assay on PC-3 prostate, 34 µM. Besides, the TGI was > 100 µM in the assay with MDA-N; > 100 µM in the assay on HCT-15 colon; > 100 µM with KM12 colon; > 100 µM with OVCAR-4 ovarian; 27.1 µM with UACC-62 melanoma; 40.5 µM in the assay on SR leukemia. Further, the TGI in the assay on NCI/ADR-RES ovarian is > 100 µM; with SK-MEL-28 melanoma, > 100 µM; in the assay on SW-620 colon, > 100 µM; in the assay on HL-60(TB) leukemia it was > 100 µM; in the assay on K-562 leukemia, > 100 µM; in the assay with MDA-MB-231 breast, 37.9 µM. The TGI in the assay on OVCAR-5 ovarian is 54 µM.

For the compound `Cc1cc(C)c2c(O)c(S(=O)(=O)c3ccc(Cl)cc3)c(=O)oc2c1`, the TGI in the assay on CCRF-CEM leukemia, in the assay with HS 578T breast, in the assay on UACC-257 melanoma, in the assay on UO-31 renal, in the assay with OVCAR-3 ovarian and with PC-3 prostate was > 100 µM throughout. Also, the TGI in the assay with MDA-N, with HCT-15 colon, in the assay with KM12 colon, in the assay on OVCAR-4 ovarian, in the assay on UACC-62 melanoma and in the assay with SR leukemia was > 100 µM each time. For the same compound, the TGI in the assay on NCI/ADR-RES ovarian, with SK-MEL-28 melanoma, in the assay with SW-620 colon, with HL-60(TB) leukemia, in the assay with K-562 leukemia and in the assay with MDA-MB-231 breast was > 100 µM in each case. Moreover, the TGI with OVCAR-5 ovarian is > 100 µM.

As to `CC(=O)c1sc2c(c1OC(=O)c1ccco1)c(=O)n(-c1ccccc1)c(=S)n2-c1ccccc1`, the TGI in the assay on CCRF-CEM leukemia is 43.5 µM; with HS 578T breast, 20 µM; in the assay with UACC-257 melanoma, 88.7 µM; with MOLT-4 leukemia, 53.8 µM; with UO-31 renal, 49.3 µM; in the assay with OVCAR-3 ovarian, > 100 µM. Also, the TGI in the assay on PC-3 prostate came to 64.2 µM; with MDA-N, 82.6 µM; with HCT-15 colon it was 41.9 µM; in the assay on KM12 colon it was 48.5 µM; in the assay with OVCAR-4 ovarian, 95 µM; in the assay with SR leukemia it was 72.2 µM. The TGI in the assay with NCI/ADR-RES ovarian was 51.2 µM; in the assay on SK-MEL-28 melanoma, 61.9 µM; with SW-620 colon, > 100 µM; with HL-60(TB) leukemia, 45 µM; in the assay on K-562 leukemia it was > 100 µM; in the assay with MDA-MB-231 breast, 47.1 µM.

In the case of `Cc1cc2c(cc1C(=O)CCC(=O)O)CC1(C2)Cc2cc(C)c(C(=O)CCC(=O)O)cc2C1`, the TGI in the assay with CCRF-CEM leukemia, in the assay with HS 578T breast, in the assay on UACC-257 melanoma, in the assay with MOLT-4 leukemia, in the assay on UO-31 renal and with OVCAR-3 ovarian was > 100 µM each time. The TGI in the assay with PC-3 prostate, with MDA-N, in the assay on HCT-15 colon, in the assay with KM12 colon, in the assay on OVCAR-4 ovarian and in the assay with SR leukemia was > 100 µM in each case. Further, the TGI in the assay with NCI/ADR-RES ovarian, in the assay on SK-MEL-28 melanoma, in the assay on SW-620 colon, in the assay with HL-60(TB) leukemia, in the assay with K-562 leukemia and with MDA-MB-231 breast was > 100 µM each time. Besides, the TGI in the assay on OVCAR-5 ovarian was > 100 µM.

Take `COc1cc(/C=N\N(C)C)cc(/C=N/N(C)C)c1O`: the TGI came to 72.4 µM with CCRF-CEM leukemia; 20.9 µM in the assay with HS 578T breast; 98.5 µM with UACC-257 melanoma; 79.5 µM in the assay on UO-31 renal; 53.4 µM in the assay on OVCAR-3 ovarian; 96.2 µM in the assay with PC-3 prostate. In addition, the TGI was > 100 µM with MDA-N; > 100 µM in the assay with HCT-15 colon; > 100 µM in the assay on KM12 colon; > 100 µM in the assay on OVCAR-4 ovarian; > 100 µM in the assay with UACC-62 melanoma; 32.3 µM in the assay on SR leukemia. Also, the TGI in the assay on NCI/ADR-RES ovarian is > 100 µM; in the assay on SK-MEL-28 melanoma it was 59.7 µM; with SW-620 colon, > 100 µM; with HL-60(TB) leukemia it was > 100 µM; in the assay with MDA-MB-231 breast, 80 µM.

For `Cc1ccc([N+](=O)[O-])cc1S(=O)(=O)Nc1ccc(C2=NN(c3ccc([N+](=O)[O-])cc3[N+](=O)[O-])C(c3cccs3)C2)cc1` (centres undefined), the TGI was > 100 µM in the assay with CCRF-CEM leukemia; 79.1 µM with HS 578T breast; 42.1 µM with UACC-257 melanoma; 53.3 µM in the assay on MOLT-4 leukemia; > 100 µM in the assay with UO-31 renal; 34.4 µM in the assay with OVCAR-3 ovarian. Also, the TGI with PC-3 prostate was > 100 µM; in the assay on MDA-N it was 31.4 µM; in the assay on HCT-15 colon it was 32.7 µM; in the assay with KM12 colon, 55.6 µM; with OVCAR-4 ovarian it was 77.3 µM; in the assay on SR leukemia it was 58.6 µM. In addition, the TGI with NCI/ADR-RES ovarian was 41.4 µM; with SK-MEL-28 melanoma it was > 100 µM; in the assay on SW-620 colon, > 100 µM; with HL-60(TB) leukemia it was 62.9 µM; in the assay with K-562 leukemia, > 100 µM; in the assay on MDA-MB-231 breast it was 50.8 µM. The TGI in the assay on OVCAR-5 ovarian was > 100 µM.

For `NCCCCC(NC(=O)C(N)Cc1ccc(O)cn1)C(=O)O` (centres undefined), the TGI with CCRF-CEM leukemia, in the assay with HS 578T breast, in the assay on UACC-257 melanoma, in the assay with MOLT-4 leukemia, in the assay with UO-31 renal and in the assay on OVCAR-3 ovarian was > 100 µM each time. Besides, the TGI in the assay with PC-3 prostate, in the assay on MDA-N, in the assay on HCT-15 colon, in the assay on KM12 colon, in the assay with OVCAR-4 ovarian and with SR leukemia was > 100 µM each time. Further, the TGI in the assay on NCI/ADR-RES ovarian, in the assay on SK-MEL-28 melanoma, in the assay with SW-620 colon, in the assay with HL-60(TB) leukemia, in the assay with K-562 leukemia and with MDA-MB-231 breast was > 100 µM throughout. In the assay on OVCAR-5 ovarian, the TGI was > 100 µM.

As for `CN(C)c1ccc(/C=C2/NC(=S)NC2=O)cc1`, the TGI is 80.8 µM with CCRF-CEM leukemia; > 100 µM in the assay on HS 578T breast; > 100 µM with UACC-257 melanoma; > 100 µM in the assay with MOLT-4 leukemia; > 100 µM in the assay with UO-31 renal; > 100 µM in the assay on OVCAR-3 ovarian. Moreover, the TGI with PC-3 prostate, with MDA-N, with HCT-15 colon, in the assay on OVCAR-4 ovarian, in the assay on UACC-62 melanoma and in the assay with SR leukemia was > 100 µM each time. Moreover, the TGI in the assay on NCI/ADR-RES ovarian was > 100 µM; in the assay on SK-MEL-28 melanoma, > 100 µM; in the assay with SW-620 colon, > 100 µM; with HL-60(TB) leukemia, 51 µM; in the assay on MDA-MB-231 breast, > 100 µM; in the assay on OVCAR-5 ovarian, > 100 µM.

For `CC(C)(C)OC(=O)CN1C(=O)CC1CC(=O)c1ccccc1` (centres undefined), the TGI was found to be 84.2 µM in the assay with HS 578T breast; 35.2 µM with UACC-257 melanoma; 25.3 µM in the assay on MOLT-4 leukemia; 31.4 µM in the assay with UO-31 renal; 33.5 µM in the assay with OVCAR-3 ovarian; 30.9 µM in the assay on PC-3 prostate. Further, the TGI in the assay on MDA-N was 42.2 µM; with HCT-15 colon, 37.5 µM; with KM12 colon, 44.4 µM; in the assay with OVCAR-4 ovarian it was > 100 µM; with UACC-62 melanoma, 41.3 µM; in the assay on SR leukemia, 19.1 µM. Further, the TGI is > 100 µM in the assay with NCI/ADR-RES ovarian; 36.7 µM in the assay with SK-MEL-28 melanoma; 31.6 µM with SW-620 colon; 47.9 µM in the assay with HL-60(TB) leukemia; 34.2 µM in the assay on K-562 leukemia; 31.1 µM in the assay on MDA-MB-231 breast. The same compound showed a TGI in the assay on OVCAR-5 ovarian of 36.8 µM.

Consider `COc1ccccc1N(CN1C(=O)CCC1C(=O)O)C(C)=O` (centres undefined), for which the TGI with HS 578T breast, with UACC-257 melanoma, in the assay on MOLT-4 leukemia, in the assay with UO-31 renal, with OVCAR-3 ovarian and in the assay with PC-3 prostate was > 100 µM each time. The TGI in the assay on MDA-N, with HCT-15 colon, with KM12 colon, with OVCAR-4 ovarian, in the assay with UACC-62 melanoma and with SR leukemia was > 100 µM throughout. Besides, the TGI with NCI/ADR-RES ovarian, in the assay with SK-MEL-28 melanoma, in the assay on SW-620 colon, in the assay on HL-60(TB) leukemia, in the assay on K-562 leukemia and with MDA-MB-231 breast was > 100 µM throughout. Further, the TGI with OVCAR-5 ovarian was > 100 µM.

As for `O=C1c2[nH]c3ccc(Br)cc3c2CCN1Cc1ccc(Cl)cc1`, the TGI in the assay with CCRF-CEM leukemia was > 100 µM; in the assay with HS 578T breast, 43.3 µM; in the assay with UACC-257 melanoma it was 30 µM; in the assay on UO-31 renal, 31.1 µM; in the assay on OVCAR-3 ovarian it was 28.5 µM; with PC-3 prostate, 19.4 µM. The TGI was determined as 30.7 µM with MDA-N; 18.1 µM with HCT-15 colon; 36.1 µM in the assay on KM12 colon; 34.3 µM in the assay on OVCAR-4 ovarian; 28.2 µM with UACC-62 melanoma; 44.5 µM with SR leukemia. In addition, the TGI in the assay on NCI/ADR-RES ovarian is 40.6 µM; in the assay on SK-MEL-28 melanoma it was 31.6 µM; with SW-620 colon it was 34.8 µM; in the assay with HL-60(TB) leukemia, 99.1 µM; in the assay on K-562 leukemia, > 100 µM; in the assay with MDA-MB-231 breast, 28.7 µM. The TGI in the assay on OVCAR-5 ovarian was found to be 26.2 µM.

As to `O=c1[nH]nc(-c2ccccc2)n1-c1ccncc1`, the TGI with CCRF-CEM leukemia, in the assay on HS 578T breast, in the assay with UACC-257 melanoma, in the assay on MOLT-4 leukemia, in the assay on UO-31 renal and with OVCAR-3 ovarian was > 100 µM in each case. Also, the TGI with PC-3 prostate, in the assay on MDA-N, in the assay on HCT-15 colon, in the assay on KM12 colon, in the assay on OVCAR-4 ovarian and in the assay on SR leukemia was > 100 µM throughout. Besides, the TGI in the assay on NCI/ADR-RES ovarian, in the assay on SK-MEL-28 melanoma, with SW-620 colon, in the assay on HL-60(TB) leukemia, with K-562 leukemia and in the assay with MDA-MB-231 breast was > 100 µM in each case. Moreover, the TGI in the assay on OVCAR-5 ovarian was > 100 µM.
